Measured values as given in patent publication US20260042764A1, “COMPOSITIONS AND METHODS FOR INHIBITION OF KRAS” (TheRas, Inc., priority 2022, published 2026).

Key:
SW1900 cells (KRAS G12D) = experiment: 3D Cell viability assay in SW1900 cells (Biological Example 6); type: cell-based; conditions: Homo sapiens; SW1990 (text: SW1900, KRAS G12D) spheroids, 72 hours
Experimental: (§1) Biological Example 6: 3D Cell viability assay in AsPC-1, SW1900, HPAC, Capan-2, RKN, H358, HCT116, KP-2, H1573, A549, MKN1, and HT1080 cells
(§2) The inhibition of cellular viability as a result of test compound treatment in a spheroid assay was measured using the CellTiter-Glow 3D Cell Viability Assay (Promega).
(§3) On Day 1, 1000 cells per well were seeded in 150 μL of complete growth media supplemented with 10% fetal bovine serum (FBS) and incubated at 37° C., in the presence of 5% CO2 in 96-well ultra-low attachment microplates (Corning) for 48 hours undisturbed to allow spheroids to form.
(§4) Following spheroid formation, cells were treated with compounds diluted in DMSO at 0.25% final DMSO concentration. Compounds were dosed in a 9-point concentration curve with three-fold dilution between concentrations. Cells were incubated in the presence of compound for 72 hours at 37° C., in the presence of 5% CO2.
(§5) Following this incubation period, the kit-provided CTG reagent was allowed to equilibrate for 30 minutes at room temperature, 150 μL of equilibrated CTG reagent was added to each well, and the plate was sealed before shaking at 250 rpm for 10 minutes at room temperature to lyse the cells, 150 μL of lysate per well was transferred to a 96-well plate and luminescence was read on a CLARIOstar plate reader.
(§6) Data was imported into the Prism software package (Graphpad) and EC50 values were calculated using the log (inhibitor) vs, response—variable slope (Four parameters) model.

H358 cells (KRAS G12C) = experiment: 3D Cell viability assay in H358 cells (Biological Example 6); type: cell-based; conditions: Homo sapiens, NCI-H358; H358 (KRAS G12C) spheroids, 72 hours
Experimental: as §1, §2, §3, §4, §5, §6

[1] = target: T1, Avi-KRAS WT (1-169) GppNHp/RAF1 RBD-3xFLAG (52-151) (Homo sapiens, UniProt P01116); experiment: Raf1-KRAS WT-GppNHP disruption HTRF assay (Biological Example 1); type: binding; conditions: KRAS WT, GppNHp-loaded; Table 11
T1 construct: Avi-KRAS WT (1-169)
T1 sequence (P01116 1-169 isoform P01116-2): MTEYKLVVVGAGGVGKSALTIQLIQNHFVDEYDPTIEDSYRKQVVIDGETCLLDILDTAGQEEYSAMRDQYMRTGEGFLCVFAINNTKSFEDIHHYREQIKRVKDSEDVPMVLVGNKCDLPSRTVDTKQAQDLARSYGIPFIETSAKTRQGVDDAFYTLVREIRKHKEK
Procedure, shortened: (§7)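 Compounds were tested for disruption of KRAS–RAF1 RBD binding by HTRF in 50 mM Tris pH 7.5, 100 mM NaCl, 5 mM MgCl2, 0.1% BSA, 0.01% Tween, 10% DMSO. Protein mix was incubated 1 h at room temperature with shaking, then detection reagents added for another 1 h. Activity expressed as percent of DMSO control.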

HT1080 cells (NRAS) = experiment: 3D Cell viability assay in HT1080 cells (Biological Example 6); type: cell-based; conditions: Homo sapiens, HT-1080; HT1080 (NRAS) spheroids, 72 hours
Experimental: as §1, §2, §3, §4, §5, §6

A549 cells (KRAS G12S) = experiment: 3D Cell viability assay in A549 cells (Biological Example 6); type: cell-based; conditions: Homo sapiens; A549 (KRAS G12S) spheroids, 72 hours
Experimental: as §1, §2, §3, §4, §5, §6

H1573 cells (KRAS G12A) = experiment: 3D Cell viability assay in H1573 cells (Biological Example 6); type: cell-based; conditions: Homo sapiens, NCI-H1573; H1573 (KRAS G12A) spheroids, 72 hours
Experimental: as §1, §2, §3, §4, §5, §6

[2] = target: T2, Avi-KRAS G12R (1-169) GppNHp/RAF1 RBD-3xFLAG (52-151) (Homo sapiens, UniProt P01116, G12R); experiment: Raf1-KRAS G12R-GppNHP disruption HTRF assay (Biological Example 1); type: binding; conditions: KRAS G12R, GppNHp-loaded; Table 11
T2 construct: Avi-KRAS G12R (1-169)
T2 sequence (P01116 1-169 isoform P01116-2 G12R): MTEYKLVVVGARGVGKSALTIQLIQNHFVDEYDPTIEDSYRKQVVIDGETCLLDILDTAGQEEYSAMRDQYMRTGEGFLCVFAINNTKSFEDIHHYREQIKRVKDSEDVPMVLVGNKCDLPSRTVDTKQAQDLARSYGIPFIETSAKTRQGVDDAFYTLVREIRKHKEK
Procedure, shortened: as §7

[3] = target: T3, Avi-KRAS G12D (1-169) GppNHp/RAF1 RBD-3xFLAG (52-151) (Homo sapiens, UniProt P01116, G12D); experiment: Raf1-KRAS G12D-GppNHP disruption HTRF assay (Biological Example 1); type: binding; conditions: KRAS G12D, GppNHp-loaded; Table 11
T3 construct: Avi-KRAS G12D (1-169)
T3 sequence (P01116 1-169 isoform P01116-2 G12D): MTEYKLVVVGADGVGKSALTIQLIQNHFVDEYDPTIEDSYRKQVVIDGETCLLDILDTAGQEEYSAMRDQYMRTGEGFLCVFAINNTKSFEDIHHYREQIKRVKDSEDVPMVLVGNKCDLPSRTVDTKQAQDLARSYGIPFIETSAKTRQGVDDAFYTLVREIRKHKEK
Procedure, shortened: as §7

HPAC cells (KRAS G12D) = experiment: 3D Cell viability assay in HPAC cells (Biological Example 6); type: cell-based; conditions: Homo sapiens, HPAC, 72 h, HPAC (KRAS G12D) spheroids
Experimental: as §1, §2, §3, §4, §5, §6

HCT116 cells (KRAS G13D) = experiment: 3D Cell viability assay in HCT116 cells (Biological Example 6); type: cell-based; conditions: Homo sapiens, HCT-116; HCT116 (KRAS G13D) spheroids, 72 hours
Experimental: as §1, §2, §3, §4, §5, §6

[4] = target: T4, Avi-KRAS G12V (1-169) GppNHp/RAF1 RBD-3xFLAG (52-151) (Homo sapiens, UniProt P01116, G12V); experiment: Raf1-KRAS G12V-GppNHP disruption HTRF assay (Biological Example 1); type: binding; conditions: KRAS G12V, GppNHp-loaded; Table 11
T4 construct: Avi-KRAS G12V (1-169)
T4 sequence (P01116 1-169 isoform P01116-2 G12V): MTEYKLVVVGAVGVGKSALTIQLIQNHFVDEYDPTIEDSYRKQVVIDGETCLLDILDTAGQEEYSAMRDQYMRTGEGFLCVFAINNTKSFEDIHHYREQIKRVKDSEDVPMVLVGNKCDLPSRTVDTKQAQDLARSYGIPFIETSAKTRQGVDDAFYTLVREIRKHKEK
Procedure, shortened: as §7

GP2d cells (KRAS G12D) = experiment: Cell-based pERK HTRF assay in GP2d cell (Biological Example 2)
Procedure, shortened: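 Phospho-ERK is measured by HTRF following a 60 min compound exposure at 0.25% DMSO, with a 9-point half-log curve topping at 1 μM or 100 nM.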

[5] = target: T5, Avi-KRAS G12C (2-169) GTP/RAF1 RBD-3xFLAG (51-131) (Homo sapiens, UniProt P01116, G12C); experiment: Raf1-KRAS G12C-GTP disruption HTRF assay (Biological Example 3); type: binding
T5 construct: Avi-KRAS G12C (2-169)
T5 sequence (P01116 2-169 isoform P01116-2 G12C): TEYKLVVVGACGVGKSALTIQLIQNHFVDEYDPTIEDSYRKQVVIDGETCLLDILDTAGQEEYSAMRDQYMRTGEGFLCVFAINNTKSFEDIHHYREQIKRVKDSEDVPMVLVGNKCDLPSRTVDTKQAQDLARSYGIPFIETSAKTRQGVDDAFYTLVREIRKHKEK
Procedure, shortened: (§8)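 50 nM Avi-KRAS (2-169) GTP/RAF1 RBD complex; 75 nM RBD-Avi; pH 7.5 Tris buffer, 10% DMSO; cpd 30 μM top, 3x, 10 pts; 1 h RT, 700 rpm; HTRF, % of DMSO.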

[6] = target: T6, Avi-KRAS G12D (2-169) GTP/RAF1 RBD-3xFLAG (51-131) (Homo sapiens, UniProt P01116, G12D); experiment: Raf1-KRAS G12D-GTP disruption HTRF assay (Biological Example 3); type: binding
T6 construct: Avi-KRAS G12D (2-169)
T6 sequence (P01116 2-169 isoform P01116-2 G12D): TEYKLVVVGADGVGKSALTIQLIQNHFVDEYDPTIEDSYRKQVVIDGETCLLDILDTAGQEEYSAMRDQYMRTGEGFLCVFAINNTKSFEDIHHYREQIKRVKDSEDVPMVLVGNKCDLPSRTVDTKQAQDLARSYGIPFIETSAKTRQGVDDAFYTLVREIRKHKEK
Procedure, shortened: as §8

SW620 cells (KRAS G12V) = experiment: Cell-based pERK HTRF assay in SW620 cell (Biological Example 4)
Procedure, shortened: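 This assay measures inhibition of ERK phosphorylation downstream of KRAS G12V in intact SW620 cells. Compounds are applied for 4 h over nine half-log concentrations starting at 1 μM, and pERK is quantified by HTRF.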

[7] = target: T7, Avi-KRAS G12V (2-169) GTP/RAF1 RBD-3xFLAG (51-131) (Homo sapiens, UniProt P01116, G12V); experiment: Raf1-KRAS G12V-GTP disruption HTRF assay (Biological Example 3); type: binding
T7 construct: Avi-KRAS G12V (2-169)
T7 sequence (P01116 2-169 isoform P01116-2 G12V): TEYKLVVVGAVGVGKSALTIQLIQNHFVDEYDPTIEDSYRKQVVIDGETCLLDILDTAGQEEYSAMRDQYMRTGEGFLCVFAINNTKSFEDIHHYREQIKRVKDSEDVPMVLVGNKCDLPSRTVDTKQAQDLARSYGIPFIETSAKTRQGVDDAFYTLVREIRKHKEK
Procedure, shortened: as §8

[8] = target: T8, Avi-KRAS WT (2-169) GTP/RAF1 RBD-3xFLAG (51-131) (Homo sapiens, UniProt P01116); experiment: Raf1-KRAS WT-GTP disruption HTRF assay (Biological Example 3); type: binding
T8 construct: Avi-KRAS WT (2-169)
T8 sequence (P01116 2-169 isoform P01116-2): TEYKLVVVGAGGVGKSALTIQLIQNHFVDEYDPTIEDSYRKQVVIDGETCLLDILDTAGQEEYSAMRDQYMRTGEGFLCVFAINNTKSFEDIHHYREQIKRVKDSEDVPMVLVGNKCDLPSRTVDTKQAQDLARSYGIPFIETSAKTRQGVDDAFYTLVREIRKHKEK
Procedure, shortened: as §8

[9] = Homo sapiens, SW-620, SW620 (KRAS G12V) cells

| SMILES | IC50 ([5]; KRAS G12C, GTP-loaded) | IC50 ([6]; KRAS G12D, GTP-loaded) | IC50 (SW620 cells (KRAS G12V); [9]) | IC50 (GP2d cells (KRAS G12D); GP2d, GP2d (KRAS G12D) cells) | IC50 ([7]; KRAS G12V, GTP-loaded) | IC50 ([8]; KRAS WT, GTP-loaded) | IC50 (SW620 cells (KRAS G12V); SW620 (KRAS G12V) cells) | IC50 (GP2d cells (KRAS G12D); GP2d (KRAS G12D) cells) | other results |
| --- | --- | --- | --- | --- | --- | --- | --- | --- | --- |
| CN(C)c1nc(OC[C@@]23CCCN2C[C@H](F)C3)nc2c(F)c(-c3ccc(F)c4sc(N)c(C#N)c34)c(C(F)(F)F)cc12 [Compound 153] | – | – | – | – | – | – | – | – | IC50 (SW1900 cells (KRAS G12D)): 0.1 to 1 µM; IC50 (H358 cells (KRAS G12C)): ≤ 0.1 µM; IC50 [1]: 0.1 to 1 µM; IC50 (HT1080 cells (NRAS)): > 1 µM; IC50 (A549 cells (KRAS G12S)): ≤ 0.1 µM; IC50 (H1573 cells (KRAS G12A)): 0.1 to 1 µM; IC50 [2]: 0.1 to 1 µM; IC50 [3]: < 0.1 µM; IC50 (HPAC cells (KRAS G12D)): 0.1 to 1 µM; IC50 (HCT116 cells (KRAS G13D)): 0.1 to 1 µM; IC50 [4]: 0.1 to 1 µM; IC50 (GP2d cells (KRAS G12D); GP2d, GP2d (KRAS G12D) cells, pERK HTRF): < 0.1 µM |
| CCN(c1nc(OC[C@@]23CCCN2C[C@H](F)C3)nc2c(F)c(-c3ccc(F)c4sc(N)c(C#N)c34)c(C(F)(F)F)cc12)[C@@H]1CC[C@H](C(=O)N(C)C)C1 [Compound 959] | 1 to 10 µM | 1 to 10 µM | < 0.1 µM | < 0.1 µM | 1 to 10 µM | 1 to 10 µM | – | – | – |
| CCN(c1nc(OCC23CCCN2CC(F)C3)nc2c(F)c(-c3ccc(F)c4sc(N)c(C#N)c34)c(C(F)(F)F)cc12)C1CCN(C(=O)c2cnc(C#N)s2)C1 (stereo not drawn) [Compound 960] | 0.1 to 1 µM | 0.1 to 1 µM | – | – | 0.1 to 1 µM | 1 to 10 µM | < 0.1 µM | < 0.1 µM | – |
| CN(c1nc(OCC23CCCN2CC(F)C3)nc2c(F)c(-c3ccc(F)c4sc(N)c(C#N)c34)c(C(F)(F)F)cc12)C1CCc2ccncc21 (stereo not drawn) [Compound 961] | > 10 µM | 1 to 10 µM | – | – | 1 to 10 µM | > 10 µM | < 0.1 µM | < 0.1 µM | – |
| CN(c1nc(OCC23CCCN2CC(F)C3)nc2c(F)c(-c3ccc(F)c4sc(N)c(C#N)c34)c(C(F)(F)F)cc12)C1CCc2ccncc21 (stereo not drawn) [Compound 962] | > 10 µM | 1 to 10 µM | – | – | > 10 µM | 1 to 10 µM | < 0.1 µM | < 0.1 µM | – |
| CCN(c1nc(OC[C@@]23CCCN2C[C@H](F)C3)nc2c(F)c(-c3ccc(F)c4sc(N)c(C#N)c34)c(C(F)(F)F)cc12)[C@@H]1CCN(c2cccn(C)c2=O)C1 [Compound 964] | 1 to 10 µM | 1 to 10 µM | < 0.1 µM | < 0.1 µM | 1 to 10 µM | 1 to 10 µM | – | – | – |
| C[C@@H](c1cccnc1)N(C)c1nc(OC[C@@]23CCCN2C[C@H](F)C3)nc2c(F)c(-c3ccc(F)c4sc(N)c(C#N)c34)c(C(F)(F)F)cc12 [Compound 969] | 1 to 10 µM | 1 to 10 µM | < 0.1 µM | < 0.1 µM | 1 to 10 µM | 1 to 10 µM | – | – | – |
| CCN(c1nc(OC[C@@]23CCCN2C[C@H](F)C3)nc2c(F)c(-c3ccc(F)c4sc(N)c(C#N)c34)c(C(F)(F)F)cc12)[C@H]1CCN(c2nccs2)C1 [Compound 973] | – | – | – | – | – | – | – | – | IC50 ([5]; KRAS G12C-GTP / RAF1 RBD HTRF): 0.1 to 1 µM; IC50 ([6]; KRAS G12D-GTP / RAF1 RBD HTRF): 0.1 to 1 µM; IC50 (SW620 cells (KRAS G12V); Homo sapiens, SW-620, SW620 cells (KRAS G12V)): < 0.1 µM; IC50 (GP2d cells (KRAS G12D); GP2d, GP2d cells (KRAS G12D)): < 0.1 µM; IC50 ([7]; KRAS G12V-GTP / RAF1 RBD HTRF): 0.1 to 1 µM; IC50 ([8]; KRAS WT-GTP / RAF1 RBD HTRF): 1 to 10 µM |
